“Also recorded” adds a separate entry of the source.
Key:
hES cells [1] = experiment: Proliferation assay, 3H thymidine incorporation; assay type: cell-based, human; conditions: on laminin, 16 hours pulse, n=4
Protocol: Proliferation assay to quantify rates of proliferation under different culture conditions: Cells were cultured in 6 well plates on laminin in the presence of either FGF2-supplemented CM from feeder layers or activin A, KGF, NIC, or a combination of these 3 factors. Cultures were pulsed with 1 μCi/ml [methyl ^3H] thymidine (specific activity 6.7 Ci/mmol; MP Biomedicals, Irvine Calif.; www.mpbio.com) in newly replenished medium. After 16 hours, cells were harvested and thymidine incorporation into cells was quantified as previously described.^23 Briefly, DNA content was measured fluoremetrically, and incorporation of ^3H thymidine was determined by liquid scintillation counting of trichloracetic acid precipitates of the sonicated cells. Statistical significance of observed differences was determined by analysis of variance and Fischer's protected least significance difference test with a 95% level as the limit of significance using Statview IV (Abacus Concepts, Berkeley Calif.).

TGFβ = conditions: cited from earlier work
[2] = test system: members of the BMP family; conditions: cited from earlier work
HSF6 cells [3] = experiment: Follistatin added to HSF6 cells on mEFs (immunohistochemistry, RT-PCR); assay type: cell-based, human; conditions: on mEFs with follistatin
Protocol: (§1) Stem cell culture: hES cell line HSF6 was maintained on mitomycin C treated CF1 mouse feeder layers (mEF) at 37° C., 5% CO2 in DSR medium, which consisted of high glucose DMEM containing knockout serum replacer, glutamine, non-essential amino acids, 0.1 mM β-mercaptoethanol (all from Gibco, Carlsbad, Calif.; www.invitrogen.com) as previously described,^19 or on laminin (20 μg/ml, Chemicon, www.chemicon.com) coated dishes or in DSR containing 50 ng/ml human recombinant Activin A (ACT A), 50 ng/ml human recombinant Keratinocyte Growth Factor (KGF), both from Preprotech Inc. (Rocky Hill N.J.; www.preprotech.com). These concentrations were determined from previous experiments with human fetal pancreatic cell culture.^14, 20 In some experiments, 10 ng/ml human recombinant Bone Morphogenetic Protein 4 (BMP-4; R&D Systems Minneapolis, Minn. www.RnDSystems.com) was used to replace ACT A, and 0.4 μg/ml follistatin (R&D Systems) was added to ES cells grown on mEFs, sufficient to neutralize 50 ng/ml Act A according to the manufacturer's directions. Medium was changed every day on cells grown on mEFs and every other day, on cells grown on laminin with the growth factors. Cells were passaged weekly at 1:3 or 1:4 dilution.
In some experiments, 10 ng/ml human recombinant Bone Morphogenetic Protein 4 (BMP-4; R&D Systems Minneapolis, Minn. www.RnDSystems.com) was used to replace activin A, and 2 μg/ml recombinant mouse FS-288 follistatin (R&D Systems) was added to ES cells grown on mEFs, sufficient to neutralize 50 ng/ml activin A according to manufacturer's directions. Medium was changed every day on cells grown on mEFs or in CM and every other day, on cells grown on laminin with the growth factors. Cells were passaged weekly at 1:3 or 1:4 dilution by gentle treatment with 1 mg/ml Collagenase IV (Gibco BRL) for 5 minutes, followed by scraping.
Immunohistochemistry: Stem cell cultures were grown on coverslips coated with mEFs or laminin fixed with 4% paraformaldehyde and stained. Protein expression of the stem cell markers TRA-1-60 and Oct-4 was analyzed by immunohistochemistry using primary mouse anti-TRA-1-60 (Chemicon) and rabbit anti-OCT-4 antiserum (a generous gift from Dr Hans Scholer, U Penn). Control slides were incubated with mouse IgM and rabbit IgG. […]
Alternatively, hES cell cultures were grown on coverslips coated with mEFs or laminin, fixed with 4% paraformaldehyde and immunostained as previously described.^4 Protein expression of the stem cell markers TRA-1-60, SSEA-4 and Oct-4 was analyzed using primary mouse anti-TRA-1-60 IgM (Chemicon) mouse anti-SSEA-4 IgG3 (DSHB, U of Iowa, Iowa City, Iowa), and rabbit anti-Oct-4 antiserum (a generous gift from Dr Hans Scholer, U Penn). […]

activin A = molecular target: T1, activin A (Homo sapiens, UniProt P08476); conditions: cited from earlier work
T1 sequence (P08476 311-426): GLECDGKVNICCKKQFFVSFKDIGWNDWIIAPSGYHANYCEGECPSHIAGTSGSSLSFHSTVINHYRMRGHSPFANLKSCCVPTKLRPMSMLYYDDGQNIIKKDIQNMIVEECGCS

HSF6 cells [4] = experiment: Flow cytometric analysis of TRA-1-60 cell-surface antigen expression; assay type: cell-based, human; conditions: activin removed from the culture for 1 week (NIC+KGF remain)
Protocol: (§2) Alternatively, hES cell line HSF6 was maintained on mitomycin C treated CF1 mouse feeder layers (mEF) at 37° C., 5% CO2 in DSR medium as previously described^4. For the experiments described here, passage 43 hES cells were cultured on laminin (20 μg/ml, Chemicon, www.chemicon.com) coated dishes in the presence of conditioned medium from mEFs (CM) supplemented with 10 ng/ml basic fibroblast growth factor (FGF2; Preprotech Inc. Rocky Hill N.J.; www.preprotech.com), or on laminin in DSR medium containing 50 ng/ml human recombinant activin A, 50 ng/ml human recombinant KGF, both from Preprotech, and 10 mM Nicotinamide (NIC; Sigma Corp, St Louis Mo.).
Flow cytometric analysis: Flow cytometry was used to quantify undifferentiated cells under different culture conditions. Cells were harvested using a 60 minute collagenase treatment followed by shearing into a single cell suspensions and filtering using a 70 micron cell filter. Single cells from each condition were labeled with mouse anti TRA-1-60 or mouse IgM (for controls) and FITC-conjugated donkey anti-mouse IgM (Jackson Immunoresearch). Cells were analyzed using a Becton Dickinson FACScan, and cell-surface antigen expression quantitated using CellQuest software.

hES cell line HSF6 = experiment: Long-term feeder-free culture and passaging in the undifferentiated state; assay type: cell-based, human
Protocol: as §1
as §2, with “Mo.). […]” for “Mo.).”

HSF6 cells [5] = experiment: Immunohistochemistry of stem cell markers in hES cells grown on laminin; assay type: cell-based, human; conditions: NK and A for 1 week
Protocol: as §1
(§3) Alternatively, hES cell line HSF6 was maintained on mitomycin C treated CF1 mouse feeder layers (mEF) at 37° C., 5% CO2 in DSR medium as previously described^4. […]

Smad2 = experiment: Western blotting for phosphorylated Smad2; assay type: cell-based, human; conditions: HSF6 cells grown in the presence of Activin A
Protocol: Western blotting: Western blotting was used for phosphorylated Smad2, and was performed on lysates of HSF6 cells as previously described.^4 Cells cultured in the presence of activin A were lysed in detergent containing buffer supplemented with vanadate (10 μM) and microcystin (1 μM) and first blotted with phospho-Smad2 (ser465/467) antibody (Cell Signaling, cellsignal.com). Blots were then stripped and reprobed with Smad2 antibody (Cell Signaling).

hES cells [6] = experiment: Semi-quantitative RT-PCR of stem cell markers in hES cells grown on laminin; assay type: cell-based, human; conditions: 1 week for NK and BMP-4 (10 ng/ml, replacing activin A)
Protocol: as §1, §3

## NC(=O)c1cccnc1 [NIC, nicotinamide, reference compound]
hES cells [1]
  proliferation rate (3H thymidine incorporation): intermediate

## follistatin
TGFβ
  binding to TGFβ: does not bind
[2]
  affinity for members of the BMP family: lower affinity
HSF6 cells [3]; 1 week
  expression of oct-4 and nanog, RT-PCR: absent (nanog) or markedly diminished (oct-4)
  staining for TRA-1-60 and Oct-4 (immunohistochemistry): lost staining for TRA-1-60 (cytoplasmic), with reduced staining for Oct-4
HSF6 cells [3]; 2 weeks
  expression of oct-4 and nanog, RT-PCR: completely lost
  staining for Oct-4 (immunohistochemistry): Oct-4 immunoreactivity had completely disappeared
Activin A
  affinity for activin A: extremely high affinity

B1: Activin A: human recombinant Activin A, TGFβ family member; homodimer of inhibin beta-A chain (protein)
chain: GLECDGKVNICCKKQFFVSFKDIGWNDWIIAPSGYHANYCEGECPSHIAGTSGSSLSFHSTVINHYRMRGHSPFANLKSCCVPTKLRPMSMLYYDDGQNIIKKDIQNMIVEECGCS
hES cells [1]
  proliferation rate (3H thymidine incorporation): significantly reduced
HSF6 cells [4]
  percentage of cells expressing TRA-1-60 after removal of activin: 3.9%
hES cell line HSF6; dose response at 5, 50 and 100 ng/ml
  concentration optimal to maintain the cells in an undifferentiated state: 50 ng/mL
hES cell line HSF6; on laminin
  continued growth and passaging: could not be passaged further
hES cell line HSF6; on laminin, without feeder layers, conditioned medium or STAT3 activation
  passages of continuous growth in the undifferentiated state: at least 10 passages
HSF6 cells [5]
  staining for TRA-1-60 and Oct-4 / phenotype (immunohistochemistry): no change in phenotype
Smad2
  Smad2 phosphorylation: showing phospho-Smad 2

B2: BMP-4: human recombinant Bone Morphogenetic Protein 4, another TGFβ family member, used to replace activin A (protein, UniProt P12644 293-408, looked up)
Bone morphogenetic protein 4: SPKHHSQRARKKNKNCRRHSLYVDFSDVGWNDWIVAPPGYQAFYCHGDCPFPLADHLNSTNHAIVQTLVNSVNSSIPKACCVPTELSAISMLYLDEYDKVVLKNYQEMVVEGCGCR
hES cells [6]
  expression of stem cell markers oct-4, nanog (telomerase), RT-PCR: loss of expression for nanog, oct-4, and telomerase; also recorded: complete loss of expression for nanog and oct-4

Reference: US20090155218A1, “COMPOSITIONS AND METHODS FOR GROWTH OF EMBRYONIC STEM CELLS” (priority 2004, published 2009)
